Assay results from patent US20100311827A1, “Chlorogenic acid derivatives and their use as anti-fungal agents” (priority 2006, published 2010).
Converted amounts (≈) assume the structure as drawn. Read-outs that look alike come from different tables or passages of the source.

Tests used:
Candida krusei ATCC6258 = test: Broth dilution anti-fungal susceptibility, MIC (as in Example 24); format: cell-based
[1] = system: Cryptococcus neoformans (ATCC32045); test: Broth dilution anti-fungal susceptibility (NCCLS M27-A2), MIC; format: cell-based; conditions: Table 1, MICs read at 80% inhibition, 35° C., 48 to 72 hours, tested 0.12 to 64 μg/ml
Procedure: (§1) The anti-fungal activity of the compounds according to the invention were evaluated against Candida albicans (ATCC90028), Cryptococcus neoformans (ATCC32045), and Aspergillus fumigatus (ATCC13073) according to NCCLS guidelines (NCCLS reference method for broth dilution anti-fungal susceptibility testing of yeasts; approved standard-second edition, M27-A2, National Committee for Clinical Laboratory Standards, Villanova, Pa. 2003; and NCCLS reference method for broth dilution anti-fungal susceptibility testing of filamentous fungi; approved standard, M38-A, National Committee for Clinical Laboratory Standards, Villanova, Pa. 2002).
(§2) The medium required for the evaluation of anti-fungal activity was prepared as follows. RPMI 1640 broth+MOPS, pH adjusted and filter sterilized. Sabouraud Dextrose Agar (SDA) plates were used for growing fungi.
(§3) All test or candidate compounds were prepared as 5 mg/ml stock solutions in DMSO and further diluted according to the NCCLS guidelines with sterile water or appropriate diluent. A working stock of 256 μg/ml was used to prepare 1:2 serial dilutions in 96-well plates.
(§4) The inoculums of fungi were prepared by making a direct sterile water suspension of colonies/spores from SDA plates. 0.1% Tween 20 was used for A. fumigatus for better dispersal of spores in suspension. For C. albicans and C. neoformans overnight cultures were used. A. fumigatus required longer incubation. Each fungal suspension was adjusted to read between 70 and 75% transmittance at 530 nm (0.5 McFarland Standard). These suspensions were further diluted 1/1000 in appropriate broth for inoculating the 96-well plates.
(§5) All plates were incubated at 35° C. for the following times: 18 hours to 24 hours for C. albicans, 48 hours for A. fumigatus, and 48 to 72 hours for C. neoformans.

[2] = system: Candida albicans (ATCC90028); test: as above; format: cell-based; conditions: for MIC: Candida albicans, MICs read at 80% inhibition
Procedure: as §1, §2, §3, §4, §5

brine shrimp = format: in vivo
Procedure: The general in vitro toxicity of these compounds can be tested using the Brine Shrimp Lethality assay, as described in Mclaughlin, J. L. in Methods in Plant Biochemistry. Ed. K. Hostettmann, Academic Press, London, 1991; Vol. 6, pp. 1-32. Typically, candidate compounds are diluted in seawater to a suitable concentration and added to second instar larvae of Artemia salina. After a suitable period of time, for example 24 hours, the survivors are counted. In vitro acute toxicity testing of a compound of Formula I can also be performed using mammalian cell lines (see, for example, Ekwall, B., Ann. N.Y. Acad. Sci., (1983) 407:64-77). Selection of an appropriate cell line is dependent on the potential application of the candidate compound and can be readily determined by one skilled in the art.
To test the general toxicity of these compounds, Brine Shrimp Lethality assay was carried out according to Mclaughlin, J. L. in Methods in Plant Biochemistry. Ed. K. Hostettmann, Academic Press, London, 1991; Vol. 6, pp. 1-32. The compounds were tested at 100 μg/ml.

[3] = system: Aspergillus fumigatus (ATCC13073); test: Broth dilution anti-fungal susceptibility of filamentous fungi (NCCLS M38-A), MIC; format: cell-based; conditions: Table 1, MICs read at 80% inhibition, 35° C., 48 hours, tested 0.12 to 64 μg/ml
Procedure: as §1, §2, §3, §4, §5

[4] = comparison in words, from Table 3

**Q.** `CCCCCCCCOc1ccc(NC(=O)C(NC(=O)C2(O)CC(O)C(O)C(OC(=O)/C=C/c3ccc(O)c(O)c3)C2)C(C)O)cc1` (stereo not drawn) [Compound 12] was tested. Which MIC (Candida krusei ATCC6258; Pichia kudriavzevii, ATCC6258, Table 3 (Example 26), MICs read at 80% inhibition, 0.12 to 64 μg/ml, read-out: MIC C. krusei) did it give?
**A.** The MIC was 2 µg/mL (≈ 3.04 µM).

**Q.** What about the “inhibitory activity against C. krusei compared to chlorogenic acid” value (Candida krusei ATCC6258; [4]) of the same compound?
**A.** Its value is “more potent inhibitory activity”.

**Q.** And the MIC [1]?
**A.** Its MIC is 2 µg/mL (≈ 3.04 µM).

**Q.** And the MIC ([2]; ATCC90028, Table 1, 35° C., 18 to 24 hours, tested 0.12 to 64 μg/ml)?
**A.** Its MIC is 8 µg/mL (≈ 12.1 µM).

**Q.** And the MIC ([2]; ATCC90028, Table 3 (Example 26, additional testing), 0.12 to 64 μg/ml, read-out: MIC C. albicans)?
**A.** Its MIC is 4 µg/mL (≈ 6.07 µM).

**Q.** And the “inhibitory activity against C. albicans compared to chlorogenic acid” value [2, 4]?
**A.** Its value is “more potent inhibitory activity”.

**Q.** What about the “% BL (brine shrimp lethality)” value (brine shrimp; at 100 μg/ml) of the same compound?
**A.** The value was 12.5%.

**Q.** And the “toxicity on brine shrimp compared to chlorogenic acid” value (brine shrimp; comparison in words, from Table 2)?
**A.** Its value is “less toxicity”.

**Q.** What about the MIC [3] of the same compound?
**A.** The MIC was > 64 µg/mL.
